# Test results reported in US9492471B2, “Methods of treating a disease or disorder associated with Bruton'S Tyrosine Kinase” (Celgene Avilomics Research, Inc., priority 2013, dated 2016).
# Like-named read-outs stand apart in the source and are kept apart here.
# Experiments:
# Assay in all cases: HotSpot kinase profiling
# Assay type in all cases: biochemical
# NEK9 = target: T1, NEK9 (Homo sapiens, UniProt Q8TD19)
# T1 construct: purchased Reaction Biology Corp
# T1 sequence (Q8TD19 1-979): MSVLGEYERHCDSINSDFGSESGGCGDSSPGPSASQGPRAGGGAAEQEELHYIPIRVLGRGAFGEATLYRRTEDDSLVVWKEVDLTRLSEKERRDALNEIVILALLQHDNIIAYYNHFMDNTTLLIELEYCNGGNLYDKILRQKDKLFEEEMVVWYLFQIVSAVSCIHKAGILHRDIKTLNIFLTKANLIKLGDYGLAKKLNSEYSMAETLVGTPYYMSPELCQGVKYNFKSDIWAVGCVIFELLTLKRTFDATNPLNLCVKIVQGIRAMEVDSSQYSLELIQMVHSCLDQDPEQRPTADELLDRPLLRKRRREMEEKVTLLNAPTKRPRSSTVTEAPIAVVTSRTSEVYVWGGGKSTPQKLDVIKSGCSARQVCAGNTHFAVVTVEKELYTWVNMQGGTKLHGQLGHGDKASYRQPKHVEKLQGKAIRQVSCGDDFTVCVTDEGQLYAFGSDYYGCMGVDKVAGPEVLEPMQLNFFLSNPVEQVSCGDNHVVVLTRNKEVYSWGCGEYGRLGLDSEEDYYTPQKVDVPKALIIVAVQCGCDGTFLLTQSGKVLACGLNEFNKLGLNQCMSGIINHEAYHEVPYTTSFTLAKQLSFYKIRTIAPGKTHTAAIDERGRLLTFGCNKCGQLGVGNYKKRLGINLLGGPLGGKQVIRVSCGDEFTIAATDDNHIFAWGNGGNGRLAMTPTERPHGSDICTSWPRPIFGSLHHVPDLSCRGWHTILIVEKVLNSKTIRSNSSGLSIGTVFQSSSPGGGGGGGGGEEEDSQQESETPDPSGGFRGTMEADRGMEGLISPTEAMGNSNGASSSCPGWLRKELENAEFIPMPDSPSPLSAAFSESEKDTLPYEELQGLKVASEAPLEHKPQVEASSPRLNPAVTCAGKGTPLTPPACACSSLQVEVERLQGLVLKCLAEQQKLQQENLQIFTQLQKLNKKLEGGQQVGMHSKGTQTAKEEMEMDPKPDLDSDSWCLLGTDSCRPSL
# Procedure, shortened: (§1)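 P81 filtration radiometric readout; 2 h incubation at room temperature; 0.1% phosphoric acid wash; DMSO negative control; % inhibition, mean of replicate runs.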
# HIPK3 = target: T2, HIPK3 (Homo sapiens, UniProt Q9H422)
# T2 construct: purchased Reaction Biology Corp
# T2 sequence (Q9H422 whole entry): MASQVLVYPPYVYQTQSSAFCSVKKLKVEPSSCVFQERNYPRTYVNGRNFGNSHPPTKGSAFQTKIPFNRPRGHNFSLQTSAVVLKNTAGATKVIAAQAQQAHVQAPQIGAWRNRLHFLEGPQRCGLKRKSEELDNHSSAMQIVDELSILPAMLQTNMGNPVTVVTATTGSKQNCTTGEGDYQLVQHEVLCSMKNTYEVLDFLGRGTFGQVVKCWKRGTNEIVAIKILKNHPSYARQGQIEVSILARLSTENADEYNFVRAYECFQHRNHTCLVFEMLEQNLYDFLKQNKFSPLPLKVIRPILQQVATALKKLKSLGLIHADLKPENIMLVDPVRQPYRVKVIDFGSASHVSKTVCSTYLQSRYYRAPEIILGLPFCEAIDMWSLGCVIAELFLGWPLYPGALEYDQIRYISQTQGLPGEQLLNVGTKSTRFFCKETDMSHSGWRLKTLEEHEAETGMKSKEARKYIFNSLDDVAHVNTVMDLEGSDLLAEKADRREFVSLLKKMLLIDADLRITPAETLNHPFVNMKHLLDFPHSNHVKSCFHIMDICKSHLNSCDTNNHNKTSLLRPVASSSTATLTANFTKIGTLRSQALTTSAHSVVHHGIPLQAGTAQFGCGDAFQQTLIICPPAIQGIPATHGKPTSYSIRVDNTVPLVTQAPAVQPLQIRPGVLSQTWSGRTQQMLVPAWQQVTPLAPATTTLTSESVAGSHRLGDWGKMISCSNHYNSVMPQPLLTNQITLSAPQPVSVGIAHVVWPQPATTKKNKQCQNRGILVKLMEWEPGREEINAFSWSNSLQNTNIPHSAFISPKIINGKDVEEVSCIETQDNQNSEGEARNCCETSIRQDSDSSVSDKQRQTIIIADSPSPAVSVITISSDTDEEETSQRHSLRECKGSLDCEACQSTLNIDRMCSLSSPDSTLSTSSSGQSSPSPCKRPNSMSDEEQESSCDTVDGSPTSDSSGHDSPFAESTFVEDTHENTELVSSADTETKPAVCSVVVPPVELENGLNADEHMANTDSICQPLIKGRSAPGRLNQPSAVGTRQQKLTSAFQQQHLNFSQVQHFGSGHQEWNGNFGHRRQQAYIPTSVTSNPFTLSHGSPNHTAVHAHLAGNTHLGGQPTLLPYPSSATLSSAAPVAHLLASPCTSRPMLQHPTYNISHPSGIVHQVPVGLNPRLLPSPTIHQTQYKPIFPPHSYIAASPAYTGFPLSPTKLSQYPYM
# Procedure, shortened: as §1
# CHK2 = target: T3, CHK2 (Homo sapiens, UniProt O96017)
# T3 construct: purchased Reaction Biology Corp
# T3 sequence (O96017 whole entry): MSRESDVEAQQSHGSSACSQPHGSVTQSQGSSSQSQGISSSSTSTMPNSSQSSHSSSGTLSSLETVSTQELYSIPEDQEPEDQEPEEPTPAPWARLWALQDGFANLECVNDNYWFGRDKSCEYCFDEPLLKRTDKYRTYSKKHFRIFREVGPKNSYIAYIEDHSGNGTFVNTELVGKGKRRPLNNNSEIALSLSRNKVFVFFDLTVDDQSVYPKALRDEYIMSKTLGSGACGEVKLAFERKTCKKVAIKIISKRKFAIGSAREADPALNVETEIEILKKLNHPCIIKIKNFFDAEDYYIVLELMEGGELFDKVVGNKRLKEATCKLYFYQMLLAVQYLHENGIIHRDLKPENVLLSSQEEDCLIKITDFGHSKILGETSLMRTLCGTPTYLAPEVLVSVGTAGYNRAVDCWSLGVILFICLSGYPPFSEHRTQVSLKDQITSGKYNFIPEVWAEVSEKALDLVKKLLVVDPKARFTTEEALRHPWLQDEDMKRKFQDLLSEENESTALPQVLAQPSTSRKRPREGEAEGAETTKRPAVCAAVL
# Procedure, shortened: as §1
# RIPK5 = target: T4, RIPK5 (Homo sapiens, UniProt Q6XUX3)
# T4 construct: purchased Reaction Biology Corp
# T4 sequence (Q6XUX3 1-929): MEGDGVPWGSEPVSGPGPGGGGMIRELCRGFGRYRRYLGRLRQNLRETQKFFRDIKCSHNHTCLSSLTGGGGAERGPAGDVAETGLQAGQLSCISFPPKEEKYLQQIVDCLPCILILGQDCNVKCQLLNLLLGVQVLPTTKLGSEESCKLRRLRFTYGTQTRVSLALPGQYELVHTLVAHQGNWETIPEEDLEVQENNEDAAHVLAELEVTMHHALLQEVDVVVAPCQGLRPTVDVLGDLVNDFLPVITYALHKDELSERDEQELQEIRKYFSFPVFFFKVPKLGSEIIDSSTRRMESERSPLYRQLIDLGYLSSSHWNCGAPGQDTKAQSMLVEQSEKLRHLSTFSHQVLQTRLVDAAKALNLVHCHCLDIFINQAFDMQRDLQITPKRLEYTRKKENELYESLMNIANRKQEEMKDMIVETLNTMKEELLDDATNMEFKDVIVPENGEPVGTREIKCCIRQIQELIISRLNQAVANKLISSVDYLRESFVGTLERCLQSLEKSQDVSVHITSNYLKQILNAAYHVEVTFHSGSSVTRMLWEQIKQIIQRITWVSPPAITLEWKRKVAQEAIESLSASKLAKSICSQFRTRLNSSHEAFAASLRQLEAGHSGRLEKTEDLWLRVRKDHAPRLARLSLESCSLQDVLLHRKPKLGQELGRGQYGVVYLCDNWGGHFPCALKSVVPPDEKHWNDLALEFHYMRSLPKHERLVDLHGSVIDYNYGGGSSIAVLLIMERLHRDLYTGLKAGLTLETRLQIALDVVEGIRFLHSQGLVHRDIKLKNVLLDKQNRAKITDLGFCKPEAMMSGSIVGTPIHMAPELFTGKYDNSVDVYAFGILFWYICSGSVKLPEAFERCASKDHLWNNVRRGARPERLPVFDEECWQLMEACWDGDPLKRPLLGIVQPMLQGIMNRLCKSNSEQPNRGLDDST
# Procedure, shortened: as §1
# P70S6Kb/RPS6KB2 = target: T5, P70S6Kb/RPS6KB2 (Homo sapiens, UniProt Q9UBS0)
# T5 construct: purchased Reaction Biology Corp
# T5 sequence (Q9UBS0 whole entry): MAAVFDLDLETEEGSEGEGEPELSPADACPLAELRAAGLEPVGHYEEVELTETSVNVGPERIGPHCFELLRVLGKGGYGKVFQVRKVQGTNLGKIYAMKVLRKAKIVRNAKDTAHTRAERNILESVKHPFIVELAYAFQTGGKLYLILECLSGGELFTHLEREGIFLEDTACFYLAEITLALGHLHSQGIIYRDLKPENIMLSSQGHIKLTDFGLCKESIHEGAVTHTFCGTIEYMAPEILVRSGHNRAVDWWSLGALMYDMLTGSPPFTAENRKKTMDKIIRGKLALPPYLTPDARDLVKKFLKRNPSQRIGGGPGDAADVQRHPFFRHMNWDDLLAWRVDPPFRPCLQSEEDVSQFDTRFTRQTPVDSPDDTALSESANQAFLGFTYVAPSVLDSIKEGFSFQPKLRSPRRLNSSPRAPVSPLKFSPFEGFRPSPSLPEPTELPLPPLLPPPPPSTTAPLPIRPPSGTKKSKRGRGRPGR
# Procedure, shortened: as §1
# [1] = read-out: % Enzyme Activity (relative to DMSO controls) Run 1
# [2] = read-out: % Enzyme Activity (relative to DMSO controls) Run 2
compound,measurement,setting,value
C=CC(=O)Nc1cccc(Nc2nc(Nc3ccc(OCCOC)c(F)c3)ncc2F)c1 [Compound 2],inhibition at 3 µM,NEK9,15.9%
same,remaining activity at 3 µM,NEK9; [1],83.8%
same,remaining activity at 3 µM,NEK9; [2],84.3%
same,inhibition at 3 µM,HIPK3,-15.1%
same,remaining activity at 3 µM,HIPK3; [1],112%
same,remaining activity at 3 µM,HIPK3; [2],118%
same,inhibition at 3 µM,CHK2,74.4%
same,remaining activity at 3 µM,CHK2; [1],25.9%
same,remaining activity at 3 µM,CHK2; [2],25.3%
same,inhibition at 3 µM,RIPK5,2.32%
same,remaining activity at 3 µM,RIPK5; [1],96.1%
same,remaining activity at 3 µM,RIPK5; [2],99.2%
same,inhibition at 3 µM,P70S6Kb/RPS6KB2,4.15%
same,remaining activity at 3 µM,P70S6Kb/RPS6KB2; [1],95.6%
same,remaining activity at 3 µM,P70S6Kb/RPS6KB2; [2],96.1%
